Experimental findings from patent EP0715517B1, “ESTRENE STEROIDS AS NEU[…] CHANGE IN HUMAN HY[…] AND RELATED PHARMACEUTICAL COMPOSITIONS” (priority 1993, dated 1994) are described below.

For assay [1], the system named is VNO. In words: Electro-vomeronasogram (EVG) (Example 25). Format: in vivo, human. The following applies: for EVG response in female subjects (in words): 30 female subjects (ages 20 - 45), Fig. 6B; for EVG response to olfactants delivered to the VNO: male and female subjects, 400 fmoles, Fig. 7B; for EVG average response (mean): male subjects (ages 20 to 38), 1 second pulses, p<0.01, Fig. 6A. How it is done:
The following electrophysiological studies were performed in 60 clinically normal human volunteers of both sexes (30 male and 30 female) whose ages ranged from 20 to 45 years. No anesthetics were used, and female subjects were excluded if pregnant.
(§1) The stimulation and recording system consists of a "multifunctional miniprobe" described elsewhere (Monti-Bloch, L. and Grosser, B.l. (1991) "Effect of putative pheromones on the electrical activity of the human vomeronasal organ and olfactory epithelium," J. Steroid Biochem. Molec. Biol. 39:573-582.). The recording electrode is a 0.3 mm silver ball attached to a small (0.1 mm) silver wire insulated with Teflon© the surface of the electrode is first treated to produce a silver chloride interface, and is then covered with gelatin It is positioned within a small caliber Teflon© catheter (dia = […]) such that the tip of the electrode protrudes approximately 2 mm. The Teflon© catheter is 10 cm in length and constitutes the terminal extension for a multichannel delivery system which delivers a continuous air stream carrying discreet pulses of chemosensory stimuli. The air stream first passes into a small chamber and is bubbled through a solution containing either a vomeropherin or an olfactant in a diluent or the diluent alone. A solenoid is used to rapidly redirect the air stream from the chamber to a route which bypasses the chamber. This creates a discreet pulse of stimulant in the air stream. A second, outer Teflon® tube with a diameter of 2 mm surrounds the catheter-electrode assemblage, and its central end is connected to an aspirator that provides continuous suction of 3ml/s. This concentric arrangement of the outer suction tube allows the emitted chemosensory stimuli to be localized to an area we call a "minifield" (approx. dia = 1 mm), and it avoids diffusion of substances either to the area outside the intended stimulation site or into the respiratory system. The entire stimulating and recording assemblage may be positioned either on the neurosensory epithelium within the VNO, or on the surface of the olfactory or respiratory epithelium. Electro-vomeronasogram (EVG): Recordings are carried out in a quiet room with the subject supine; the multifunctional miniprobe is initially stabilized within the nasal cavity using a nasal retractor placed in the vestibule. Reference and ground electrodes consist of silver discs (8 mm), both of which are positioned on the glabella.
The entrance to the VNO, or vomeronasal pit, is identified by first dilating the nasal aperture and vestibule. A 6x magnifying binocular loupe with halogen illumination is then used to introduce the tip of the Teflon® catheter and recording electrode assemblage into the VNO opening where it is stabilized at an approximate depth of 1 mm within the vomeronasal passage. Optimal placement of the recording electrode is signaled after testing for an adequate depolarization in response to a test substance.
Electrical signals from the recording electrode are fed to a DC amplifier after which they are digitized, computer monitored, and stored. The peak-to-peak amplitude of the signals is measured, and the area under the depolarization wave is integrated, while continuously monitoring the signal both on the computer screen and on a digital oscilloscope. Artifacts produced by respiratory movements are deleted by training the subjects to practice mouth breathing with velopharyngeal closure. Chemosensory Stimulants: Olfactory test substances are cineole, and 1-carvone; vomeropherins are A, B, C, E and F. (Vomeropherins were supplied by Pherin Corporation, Menlo Park, California), Samples of vomeropherins In concentration of 25-800 fmoles are delivered in the continuous air stream for durations from 300 milliseconds to 1 second. Usually, intervals of 3 to 5 minutes separated each series of short test pulses. […]

In assay [2] the test system is VNO. In words: Electrodermal activity (EDA) after VNO stimulation (Example 25). Format: in vivo, human. Conditions: p<0.01, n = 30; for skin resistance (electrodermal activity, EDA): male subjects, Fig. 6C. The method, then:
(§2) Cortical evoked activity was induced by VNO stimulation with vomeropherins, and olfactory stimulation with odorants delivered in 300 ms air pulses. It was recorded using standard electroencephalographic (EEG) electrodes placed at positions Cz-A1 and Tz-A1 of the international […] system; the ground electrode was placed on the mastoid process. Electrodermal activity (EDA) was recorded using standard 8 mm silver electrodes in contact with palmar skin of the medial and ring fingers respectively, through a conductive gel interface. Skin temperature (ST) was recorded by a small (1.0 mm) thermistor probe placed in the right ear lobe. Peripheral arterial pulse (PAP) was monitored with a plethysmograph attached to the tip of the index finger. Respiratory frequency (RF) was measured with an adjustable strain gauge placed around the lower thorax. All electrical signals were DC amplified, digitized (MP-100, Biopac Systems) and continuously monitored utilizing a computer. Statistical Analysis: EVGs or EOGS, peak-to-peak changes and frequency changes of other parameters were measured and statistically analyzed. The significance of the results was determined by either using paired t-tests or analysis of variance (ANOVA). […] Recordings of the EVG were performed on 30 men and 30 women (ages 20 to 45). Vomeropherins were diluted and applied as 1 second pulses to the VNO with […] intervals between pulses when questioned, the subjects were not able to "smell" or otherwise consciously detect any of the vomeropherins.

Assay [3] has as its system VNO. The experiment in a line: Skin temperature (ST) after VNO stimulation (Example 25). The format is in vivo, human. How it is done:
as §2

Assay [4] concerns VNO. In words: Cortical evoked activity (EEG, alpha cortical activity) after VNO stimulation (Example 25). The format is in vivo, human. How it is done:
as §2
[…] […] Synchronization of the EEG was sustained for 1.5 to 2.7 minutes after application of a single pulse of active substance.

The test system of assay [5] is olfactory epithelium (OE). The experiment in a line: Electro-olfactgram (EOG) (Example 25). The format is in vivo, human. Conditions: 20 subjects (10 males, 10 females); 200 fmoles vomeropherins, 400 fmoles olfactants; one second pulses; Fig. 7A.
Description: as §1
Electrical signals from the recording electrode are fed to a DC amplifier after which they are digitized, computer monitored, and stored. The peak-to-peak amplitude of the signals is measured, and the area under the depolarization wave is integrated, while continuously monitoring the signal both on the computer screen and on a digital oscilloscope. […]
Effects of Vomeropherins on the EOG: The summated receptor potential from the olfactory epithelium (OE) was recorded in 20 subjects: 10 males and 10 females. […]

Assay [6] deals with human vomeronasal organ (VNO). In words: Local electrical potentials recorded from the VNO after localized gaseous stimulation (Example 20). The following applies: for VNO response, males compared with females (sexually dimorphic): Fig. 2B; for VNO response: males, about 25 pg of steroid-ligand puffed 1 to 2 seconds, response measured in mV x s, Fig. 2A. The format is in vivo. The method, then: A non-invasive method has been employed to record local electrical potentials from the human vomeronasal organ (VNO) and from the olfactory epithelium (OE). Localized gaseous stimulation was applied to both nasal structures at different instances using specially designed catheter/electrodes connected to a multichannel drug delivery system.
The study was performed on ten clinically normal (screened) volunteers - 2 males and 8 females, ranging in age from 18 to 85 years. The studies were conducted without general or local anesthetics.
The catheter/electrodes were designed to deliver a localized stimulus and simultaneously record the response. In the case of VNO recording, the right nasal fosa of the subject was explored using a nasoscope (nasal specula) and the vomeronasal opening was localized close to the intersection of the anterior edge of the vomer and the nasal floor. The catheter/electrode was gently driven through the VNO-opening and the electrode tip placed in the organ's lumen at 1 to 3 mm from the opening. The nasoscope was then removed. In the case of the OE, recording the procedure was similar except the positioning of the catheter/electrode was gently placed deep in the lateral part of the medial nasal duct, reaching the olfactory mucosa.
Localized gaseous stimulation was done through the catheter/electrode. A constant stream of clean, nonodorous, humidified air at room temperature was continuously passed through a channel of the stimulating system. The stimulating ligand substances were diluted in propylene glycol, mixed with the humidified air, and puffed for from 1 to 2 seconds through the catheter/electrode. It is estimated that this administration provides about 25 pg of steroid-ligand to the nasal cavity.

The subject of assay [7] is VNO. The experiment in a line: Autonomic responses to Estrene stimulation of the VNO (Example 22). Conditions: 40 male subjects, 1 second pulse. Format: in vivo, human. The method, then: Various autonomic parameters were monitored while 1,3,5(10), 16-Estratetraen-3-yl-acetate was administered to 40 male subjects using the procedure described in Example 20. Propylene glycol was also administered as a control. The ligand was administered as a 1 second pulse. The change in autonomic function was first noted within 2 seconds and lasted for up to 45 seconds.

Where [8] appears, read: 30 male subjects, p<0.01, Fig. 6G.
Setting [9] is: males, 200 fmoles, air pulses 300 ms to 1 sec, Fig. 6E.

Each structure is given as a SMILES string. Entries after “also recorded” stand apart in the source; their conditions may differ.

On to `C[C@@]12C=CC[C@H]1[C@@H]1CCC3=C[C@@H](O)CC[C@]3(C)[C@H]1CC2` [F, Androsta-4,16-dien-3β-ol], for which the “EVG response in female subjects (in words)” value with VNO [1] (100 fmoles) is reported as “produced the most significant differences within the group”. Moreover, the “EVG response in the male VNO (in words)” value in the assay with VNO [1] (male subjects, 100 fmoles, Fig. 6A and Fig. 7) is given as “significantly reduced responses in the male VNO”. The “decrease in EDA” value in the assay with VNO [2] (female subjects) is on record as “greater decrease in EDA than A or C”. Also, the “skin temperature (ST)” value with VNO [3] (30 female subjects, p<0.01, compared to A and C, Fig. 6H) was “significant increase in skin temperature”. The alpha cortical activity entry with VNO [4] (females, single pulse (200 fmoles), Fig. 6F) is “increased alpha cortical”.
As for `C[C@@]12C=CC[C@H]1[C@@H]1CCC3=C[C@H](O)CC[C@]3(C)[C@H]1CC2` [E, Androsta-4,16-dien-3α-ol], the “EVG response in female subjects (in words)” value in the assay with VNO [1] (100 fmoles) was “does not stimulate the VNO in female subjects”. Moreover, the “EOG local response of the OE (in words)” value in assay [5] is “stronger olfactory effect than does F; also recorded: significant (p<0.01) local response”.
On to `C[C@]12CC[C@@H]3c4ccc(O)cc4CC[C@H]3[C@@H]1C[C@@H](O)[C@@H]2O` [1,3,5(10)-Estratrien-3, 16α,17δ-triol], for which, in assay [6], the “VNO response, males compared with females (sexually dimorphic)” value is “approximately four times as strong in males as it is in females” and the VNO response entry is recorded as “strong VNO response”.
In the case of `CC12CCC(CC1)C(C)(C)O2` [cineole, reference compound], in the assay with VNO [1], the “EVG response to olfactants delivered to the VNO” value is given as “only a minor local response in the VNO; also recorded: do not induce a significant EVG response”. In assay [5], the “EOG local response of the OE (in words)” value was “strong response in both men and women; also recorded: significant (p<0.01) local response”.
Take `C[C@@]12C=CC[C@H]1[C@@H]1CCc3cc(O)ccc3[C@H]1CC2` [C, 1,3,5(10),16-Estratetraen-3-ol]: in assay [6], the “VNO response, males compared with females (sexually dimorphic)” value is recorded as “approximately four times as strong in males as it is in females” and the VNO response entry is listed as “significantly stronger VNO response in males than do the other compounds tested”. Further, in the assay with VNO [1] (100 fmoles), the “EVG average response (mean)” value was found to be 6.4 mV. Besides, the “skin resistance (electrodermal activity, EDA)” value with VNO [2] is reported as “decreased skin resistance”. Also, in the assay on VNO [3] (setting [8]), the “skin temperature (ST)” value is given as “significant increase in skin temperature”. For the same compound, the alpha cortical activity result with VNO [4] (setting [9]) was “significantly increased alpha cortical activity”. For the same compound, the “latency of increase in alpha cortical activity” value with VNO [4] (males, 200 fmoles, Fig. 6E) is 270 to 380 ms.
For the compound `C=C(C)[C@@H]1CC=C(C)C(=O)C1` [1-carvone, reference compound], the “EVG response to olfactants delivered to the VNO” value in the assay with VNO [1] was “only a minor local response in the VNO; also recorded: do not induce a significant EVG response”. The “EOG local response of the OE (in words)” value in assay [5] is “strong response in both men and women; also recorded: significant (p<0.01) local response”.
In the case of `CC(=O)Oc1ccc2c(c1)CC[C@@H]1[C@@H]2CC[C@]2(C)C=CC[C@@H]12` [A, 1,3, 5(10),16-Estratetraen-3-yl acetate], in the assay on VNO [7], the “change in autonomic function first noted (onset)” value is ≤ 2 s and the “change in autonomic function lasted (duration)” value is “up to 45 seconds”. In addition, in the assay with VNO [7] (compared to propylene glycol control, Fig. 4A), the “integrated receptor potential in the VNO” value was “significant change”. In addition, the galvanic skin response entry in the assay with VNO [7] (compared to propylene glycol control, Fig. 4B) is “significant change”. In addition, in the assay with VNO [1] (100 fmoles), the “EVG response in female subjects (in words)” value is “small effect that was significantly different from F” and the “EVG average response (mean)” value is listed as 11.4 mV. The “skin resistance (electrodermal activity, EDA)” value in the assay with VNO [2] is “decreased skin resistance”. In addition, the “skin temperature (ST)” value in the assay with VNO [3] (setting [8]) is recorded as “significant increase in skin temperature”. Moreover, in the assay on VNO [4] (setting [9]), the alpha cortical activity result was “significantly increased alpha cortical activity; also recorded: strongest effect”. In the assay with VNO [4] (males, 200 fmoles, Fig. 6E), the “latency of increase in alpha cortical activity” value is 270 to 380 ms.
